Literature values in patent US8211015B2 (priority 2006, dated 2012).

Settings: in vivo

SMILES | analgesic effect on labor pain
CCOC(=O)C1(c2ccccc2)CCN(C)CC1 [meperidine] | more sedation than actual analgesia
CN1CC[C@]23c4c5ccc(O)c4O[C@H]2[C@@H](O)C=C[C@H]3[C@H]1C5 [morphine] | more sedation than actual analgesia
